# Data as given in patent publication US20260183274A1, “PDK1 REGULATORY COMPOUND AND COMPOSITION CONTAINING THE SAME” (PROVIBIO CO., LTD., priority 2024, published 2026).
# Columns and labels:
# MRL/lpr mice = test: Lupus animal model (MRL/lpr mice); assay type: in vivo, mouse; settings: for Hair growth on the facial region: 41-week-old female MRL/lpr, GO15F 30 mg/kg, GO48 1 mg/kg, GO88 0.5 mg/kg i.p. once daily, FIG. 24
# From the text: The MRL/MpJ-Faslpr/J (Hereinafter Referred to as “MRL/lpr”) used in this experiment is one of the representative animal models for systemic lupus erythematosus (SLE), known to produce various autoantibodies, including antinuclear antibodies, due to the lpr (lymphoproliferation) gene.
# In this invention, the period up to 9 weeks of age was considered the pre-disease stage, and the period after 23 weeks of age was considered the post-disease stage, and efficacy verification experiments using this model were conducted.
# MRL/lpr mice were imported from The Jackson Laboratory and acclimatized for one week in an SPF (Specific Pathogen Free) facility maintained at a temperature of 21-24° C., humidity of 40-60%, and a 12-hour light-dark cycle (lights on at 7:00 AM, lights off at 7:00 PM).
# Subsequently, female and male MRL/lpr mice were mated at a ratio of 2:1 in the same facility, and the female offspring were administered the compound GO15F of the present invention or vehicle at a dose of 30 mg/kg […]
# Urine samples were collected once a week from each individual and used for analytical experiments. […]
# The protein concentration in urine collected weekly from the control group or experimental group was analyzed using ‘Quick Start™ Bradford 1× Dye Reagent (Bio-Rad, Cat. #5000205).’
# In each well of a 96-well plate, 5 μl of urine sample diluted with triple-distilled water and 250 μl of 1× dye reagent were added, reacted, and the absorbance was measured at 595 nm. […]
# Each kidney tissue was used to isolate total RNA using TRIzol™ (Invitrozen, Cat. #15596018). RNA from each mouse was quantified at 1 μg using a micro-quantitative spectrophotometer (ThermoFisher Scientific, ND2000) and cDNA was synthesized.
# The synthesized cDNA from each mouse was quantified to a concentration of 50 ng using a micro-quantitative spectrophotometer, and qPCR was performed for the cytokines ‘IL-2, IL-6, IL-10, IL-17, TNF-α, IFN-γ’ using a SYBR green probe (CFX96, BIO-RAD).
# To investigate the effects of drug administration on renal tissue in MRL/lpr mice, the tissue was fixed in 10% neutral buffered formalin at room temperature, followed by stepwise ethanol penetration for dehydration. The tissue was then embedded in xylene and paraffin.
# The blocked tissues were sectioned into 4 μm thick slices using a microtome, followed by deparaffinization, hydration, and staining.
# Hematoxylin & Eosin staining, PAS staining, and Masson trichrome staining were performed for pathological evaluation of the tissues.
# To determine the extent of IgG deposition in kidney tissue of MRL/lpr mice, immunofluorescence staining was performed using anti-IgG antibodies on paraffin-embedded kidney tissue sections, and the staining results were examined using a fluorescence microscope.
# Additionally, in 41-week-old female MRL/lpr mice, the compounds GO15F (30 mg/kg), GO48 (1 mg/kg), and GO88 (0.5 mg/kg) were administered intraperitoneally once daily.
# To confirm the proliferative activity of hair follicle cells in the skin tissue of these mice, the mice were sacrificed 14 days after administration of the compounds of the present invention, and Ki-67 immunohistochemistry (IHC) was performed.
# For this purpose, the excised skin tissue was fixed in formalin, embedded in paraffin blocks, and stained with a Ki-67-specific antibody on tissue sections prepared as slides.
# [1] = test system: Human Osteosarcoma, Saos-2; test: Relative cell viability CCK-8, Saos-2; assay type: cell-based; settings: for Relative cell viability (%), Saos-2: 48 hours
# Experimental: Human-derived head and neck cancer cell line Fadu and osteosarcoma cell line Saos-2 were cultured in MEM medium containing 10% FBS, 100 U/mL penicillin, and 100 μg/mL streptomycin.
# (§1) Following stabilization, the cells were harvested using Trypsin-EDTA treatment, centrifuged at 1,200 rpm for 3 minutes, the supernatant was removed, and the cells were resuspended in the same medium. They were then seeded into a 96-well plate (Costar 96-well cell culture plate, Corning) at 100 μL per well, and the conditions were adjusted as indicated in Table 5.
# (§2) The cells were cultured in a 5% CO2 incubator at 37° C. for 24 hours, and after stabilization of the cells, each plate was washed with 200 μL of PBS per well and treated with 50 μL of culture medium per well.
# (§3) After that, 10 μL of CCK-8 was added to each well, and the plate was incubated again at 37° C. in a 5% CO2 incubator for 2 hours.
# (§4) In other words, when the survival rate of untreated cells (DMSO) is set at 100%, the relative cell survival rate in each group treated with the drug at different concentrations is indicated.
# [2] = test system: HCT-116 colon cancer cell lines; test: Matrigel Invasion Assay, HCT-116; assay type: cell-based, human; settings: 24 hours treatment, FIG. 30
# Experimental: To evaluate the metastasis inhibitory efficacy of the compounds of the present invention on HCT-116 colon cancer cell lines, an Invasion Assay using Matrigel was performed to assess the cells' invasion ability.
# First, Matrigel was thawed on ice in RPMI-1640 medium without FBS, then diluted with DMEM at a ratio of 1:20.
# The diluted Matrigel mixture was applied to the upper chamber at 100 μl per well, and 750 μl of RPMI-1640 without FBS was added to the lower chamber.
# The plates were then incubated at 37° C. for 1 hour to allow the Matrigel to solidify.
# After coating, the Matrigel mixture in the upper chamber was removed using a pipette, and the chamber was washed with RPMI without FBS.
# Human-derived colorectal cancer cell line HCT-116, obtained from the Korean Cell Bank, was cultured in RPMI-1640 medium containing 10% FBS.
# Following stabilization, the cells were harvested using Trypsin-EDTA treatment, centrifuged at 1,200 rpm for 3 minutes, the supernatant was removed, and the cells were resuspended in the same medium, the medium in the lower chamber was replaced with 750 μl of RPMI-1640 supplemented with 10% FBS, and the cells were seeded into the upper chamber at a density of 5×10^4 cells/well.
# The cells were cultured for 24 hours after attachment, and then the compounds according to the present invention (G078, G085, G086, G088, G089, PBK-2024-010, PBK-2025-010, PBK-2025-013, PBK-2025-016) and the control substance DMSO were diluted and added to the upper chamber after removing the medium.
# Additionally, the medium in the lower chamber was replaced with fresh RPMI-1640 containing FBS, and the culture was continued.
# After an additional 24 hours, the medium was removed, and 1 ml of methanol was added for 10 minutes to fix the cells.
# Subsequently, 1 ml of Hematoxylin was added and reacted for 5 minutes, followed by 1 ml of Eosin, which was reacted for 30 seconds. The sample was then washed with distilled water (DW).
# After staining was complete, any remaining cells in the upper chamber were removed. Finally, the infiltrated cells were observed under a microscope, photographed, and the degree of infiltration was analyzed.
# [3] = test system: Human Colorectal Carcinoma cell line, HCT-116; test: Relative cell viability CCK-8, HCT-116; assay type: cell-based; settings: 48 hours; for viability at 1 µM / viability at 10 µM / viability at 30 µM / viability at 50 µM: Homo sapiens, HCT-116
# Experimental: Human-derived breast cancer cell line MCF-7, human-derived lung cancer cell line A549, human-derived colorectal cancer cell line HCT-116, human pancreatic cancer cell line AsPC-1, glioblastoma cell line A172, and melanoma cell line Malme-3M were obtained from the Korean Cell Bank. gastric cancer cell line SNU-719, and bladder cancer cell line T24 were cultured in RPMI-1640 medium containing 10% FBS.
# as §1, §2, §3, §4
compound,measurement,setting,value
"Nc1ncccc1C(=O)NCCCCCCCCCCCCN1CCOCC1 [Compound 2, 2-Amino-N-(12-morpholin-4-yl-dodecyl)-nicotinamide]",Hair growth on the facial region,MRL/lpr mice,hair growth was confirmed
"Nc1ncccc1C(=O)NCCCCCCCCCCCCN1CCNCC1 [Compound 5, 2-Amino-N-(12-(piperazin-1-yl)dodecyl)-nicotinamide]","Relative cell viability (%), Saos-2","[1]; 1 μM, listed as GO78, 1 µM",28.36%
same,"Relative cell viability (%), Saos-2","[1]; 10 μM, listed as GO78, 10 µM",33.69%
same,"Relative cell viability (%), Saos-2","[1]; 30 μM, listed as GO78, 30 µM",19.77%
same,"Relative cell viability (%), Saos-2","[1]; 50 μM, listed as GO78, 50 µM",2.60%
same,Number of infiltrated cells (invasion),[2],reduction in the number of infiltrated cells
"CC1(C)CN(CCCCCCCCCCCCC(=O)Nc2nc(N)c3[nH]cnc3n2)CCO1 [Compound 11, 12-[4-(2,2-dimethylmorpholin-4-yl)]dodecyl-N-(6-aminopurine-2-yl) carboxamide]","Relative cell viability (%), HCT-116",[3]; 1 μM,21.36%
same,"Relative cell viability (%), HCT-116",[3]; 10 μM,24.91%
same,"Relative cell viability (%), HCT-116",[3]; 30 μM,24.78%
same,"Relative cell viability (%), HCT-116",[3]; 50 μM,25.26%
same,"Relative cell viability (%), Saos-2",[1]; 1 μM,36.73%
same,"Relative cell viability (%), Saos-2",[1]; 10 μM,24.98%
same,"Relative cell viability (%), Saos-2",[1]; 30 μM,16.00%
same,"Relative cell viability (%), Saos-2",[1]; 50 μM,36.73%
same,Number of infiltrated cells (invasion),[2],reduction in the number of infiltrated cells
"Nc1ncccc1C(=O)NCCCCCCCCCCCCN1CCNCC1 [Compound 14, 2-Amino-N-(12-(piperazin-1-yl)dodecyl)nicotinamide]",Hair growth on the facial region,MRL/lpr mice,hair growth was confirmed
same,viability at 1 µM,[3]; 1 μM,14.2%
same,viability at 10 µM,[3]; 10 μM,12.3%
same,viability at 30 µM,[3]; 30 μM,9.38%
same,viability at 50 µM,[3]; 50 μM,7.61%
same,"Relative cell viability (%), Saos-2","[1]; 50 μM, listed as GO88, 50 µM",0.00%
same,viability at 1 µM,"[1]; Homo sapiens, SAOS-2, 48 h, 1 μM",47.1%
same,viability at 10 µM,"[1]; Homo sapiens, SAOS-2, 48 h, 10 μM",34.2%
same,viability at 30 µM,"[1]; Homo sapiens, SAOS-2, 48 h, 30 μM",16.3%
"Nc1nc(NC(=O)CCCCCCCCCCCCN2CCN(CCO)CC2)nc2nc[nH]c12 [Compound 15, 12-[4-(2-hydroxyethyl)piperazin-1-yl]dodecyl-N-(6-aminopurine-2-yl) carboxamide]",viability at 1 µM,[3]; 1 μM,12.1%
same,viability at 10 µM,[3]; 10 μM,11.5%
same,viability at 30 µM,[3]; 30 μM,10%
same,viability at 50 µM,[3]; 50 μM,9.08%
same,Number of infiltrated cells (invasion),[2],reduction in the number of infiltrated cells
"Nc1ncccc1C(=O)NCCCCCCCCCCCCF [Compound 57, 2-Amino-N-(12-fluoro-dodecyl)-nicotinamide]",Protein concentration in urine (proteinuria),"MRL/lpr mice; 30 mg/kg once daily, vs control MRL/lpr, FIG. 16",significantly lower than that in the control group
same,Hair growth on the facial region,MRL/lpr mice,hair growth was confirmed
same,"B cells, T cells and macrophages in spleen (flow cytometry)",MRL/lpr mice; FIG. 19,"reduced the increased B cells, T cells, and macrophages"
same,IgG deposition in kidney tissue (immunofluorescence),MRL/lpr mice; FIG. 22,significantly lower
same,Renal pathological tissue staining (glomerular capillary loops),"MRL/lpr mice; H&E, PAS, Masson trichrome, FIG. 21",the glomerular capillary loops were well maintained
same,Concentration of anti-dsDNA IgG in blood,"MRL/lpr mice; serum at necropsy (23 weeks), vs control MRL/lpr, FIG. 17",significantly lower
same,Total IgG concentration in blood,"MRL/lpr mice; serum at necropsy, vs control MRL/lpr, FIG. 18",significantly lower
